This note sets out measurements from patent publication US7258861B2, “TNF-derived peptides for use in treating oedema” (Innogenetics N.V., priority 2001, dated 2007).

Several values for one entry are separate records, joined by “and”; a condition that tells them apart may be missing. Equal values may be shown once. Positions of bridges follow the written chain, without caps; N, C: chain ends. No end group written: not given here.

Data set [1] has as its system isolated rat lungs.
Procedure: (§1) Rats. For the ex vivo experiments, 31 Sprague-Dawley rats (300 to 350 g) were tracheotomized and mechanically ventilated (40% oxygen in air) under isoflurane anesthesia. The experimental protocol was reviewed and approved by the Ethics Committee for Animal Research and by the Veterinary Office of our institution. The femoral vessels were cannulated for blood sampling, fluid replacement, and continuous arterial blood pressure monitoring. Following anticoagulation (1.5 IU/g i.v. heparin), 20 ml of blood were withdrawn and replaced by an equal volume of dextran-40 (Macrodex 10% in normosaline) to serve as priming volume for the isolated perfusion circuit. The heart-lung block was prepared as described by Ma et al., 2000, weighed and assigned to one of four groups. […] The lungs were suspended, mechanically ventilated, and perfused at constant pressure with autologous blood as described by Ma et al., 2000.
(§2) An inspiratory and expiratory quasi-static pressure-volume (PV) curve was performed at the end of the 2-hour reperfusion period by inflating and then deflating the lungs at a constant rate (0.3 ml/sec) using an automated infusion pump. A sigh was applied in all groups every 15 minutes to minimize atelectasis formation. The blood pH was maintained between 7.3 and 7.5 and, if necessary, corrected with sodium bicarbonate 8.4% or a change of the inspired CO2 as required by the blood gas analysis. Every 30 minutes, a blood sample was collected for blood gas analysis as well as for hematocrit and electrolyte concentration.
(§3) Inclusion criteria. Immediately following the start of reperfusion, the preparation had to fulfill three technical inclusion criteria: • 1) left atrial pressure (LAP) 5-10 mmHg; • 2) peak airway pressure (AWP) <15 cmH2O; and • 3) pulmonary blood flow (PBF) >10 ml/min. […] The included lungs were then flooded with gentle intratracheal instillation of 2 ml normal saline and the recorded variables measured for 2 subsequent hours.
(§4) Histological analysis. Random lung samples were fixed for light and electron microscopy and analyzed by pathologists blinded to the lung's protocol group assignment.
Data set [2] has as its system isolated rat lungs. The data set is described as follows: Isolated blood perfused flooded rat lung (weight, lung mechanics, PV curves, histology).
Procedure: as §1, §2, §3, §4
Data set [3] has as its system ex vivo instilled rat lung. The data set is described as follows: Ex vivo rat flooded lung, model of hydrostatic edema. The method, then: In this model edema is induced by instillating 2 ml of 0.9% NaCl solution intratracheally. Alternatively, edema formation can be modulated by varying the height of the venous outflow and the perfusion buffer containing reservoir, or alternatively by varying the time the lung is exposed to the elevated pressure. […] The clearance of alveolar fluid from the lung is calculated by means of measuring the concentration of HSA, which is added to the instillate over time. Alternatively, the over time weight loss as a measure of edema resorption (high weight loss is high liquid clearance), of the artificially instilled lung can be measured. The lung tidal volume, compliance and weight are monitored continuously during the experiment. At the end of the experiment bronchoalveolar fluid and supernatant of lung homogenate is taken for measurement of inflammatory mediators.
The lungs of female Wistar rats (weight 200–250 g; Harlan-Winkelmann, Borchen, Germany) are prepared after terminal i.p. anesthesia by 160 mg/kg pentobarbitural —Na (Merial Ltd, Halbermoos, Germany) and perfused as described by Uhlig and Wolin (1994), and by Uhlig and von Bethmann (1997). All equipment is obtained from Hugo Sachs Electronics (March-Hugstetten, Germany). […] As perfusion medium, a Krebs-Henseleit buffer (38° C.) containing 2% bovine serum albumin (Fraction V, Scrva. Heidelberg, Germany), 0.1% glucose (Riedel-de-Haën Inc., Seelze, Germany), and 0.3% HEPES (ICN Biomedicals Inc., Ohio, USA) is used. The total amount of recirculating buffer is 100 ml. The lungs are suspended by the trachea and ventilated by negative pressure ventilation (inspiratory pressure: −7 cm H2O, expiratory pressure: −2 cm H2O) with 80 breaths per minute resulting in a tidal volume of approximately 2 ml. Every 5 minutes, a deep inspiratory breath (−20 cm H2O) is performed. Artificial thorax chamber pressure is measured with a differential pressure transducer (Validyne DP 45-14), and an air flow velocity with a pneumotachograh tube (Fleisch Type 0000) connected to a differential pressure transducer (Validyne DP 45-15). The perfusate flow (Narcomatic RT-500) and the arterial and venous pressure (Statham P23BB) are continuously monitored. The pH of the perfusate before entering the lung is kept at 7.25 to 7.35 by automatic bubbling of the buffer with CO2 as soon as the pH exceeds this range. A weight transducer is integrated into the chamber lid which allows the continuous assessment of lung weight. Data are recorded on a Pentium II computer using the Mathlab Sofware package (Mathworks, Inc., Nattick Mass., USA). For lung mechanics, the data are analyzed by applying the following formula: P=1/C*VT+RLdV/dT
Where P is chamber pressure, C pulmonary compliance, VT tidal volume, and RL airway resistance. All lung physiology parameters were normalized to time point 0, i.e. after the end of the preconditioning perfusion of 40 minutes.

Data set [4] relates to transplanted left lung of rats. The data set is described as follows: Single left lung transplantation in syngeneic rats. The format is in vivo, rat. Conditions: 24 hours after transplantation; donor lung pre-treated by intratracheal application, 500 μg/kg. The method, then: Female Wistar of Fischer rats or weighting 250 to 260 g undergo orthotopic single left lung transplantation after 20 hours cold ischemia using a cuff technique for the vessel anastomoses and a conventional running suture for the bronchial anastomosis.
Donor procedure: Animals are anesthetized by intraperitoneal administration of pentobarbital (50 mg/kg) and heparinized (500 I.U./kg). A tracheotomy is performed and the animals are ventilated trough a cannula with 100% O2 by a Harvard rodent ventilator (Harvard apparatus, South Natick, Mass.) at a tidal volume of 10 ml/kg. […] Both lungs are flushed with 20 cc of low-potassium dextran-solution (LPD) (Perfadex®, Kabi Pharmacia, Sweden) at a pressure of 20 cm H2O. The trachea is then tied in end-inspiration. After removal of the heart-lung block, 14 gauge cuffs are placed around the pulmonary artery and vein, and the vessels are inverted and tied onto the cuff. The lung is stored in LPD solution at 4° C. until implantation.
Recipient procedure: Transplantation was performed after 20 hours of cold ischemia (4° C.). The recipient is anesthetized by breathing Halothane in a glass chamber, intubated, and anesthesia is maintained with Halothane 2%. A left lateral thoracotomy is performed in the 4th intercostal space. The left hilium is dissected. […]

Data set [5] relates to left lung of Fischer (F344) rats. The data set is described as follows: Rat model of lung reperfusion injury (warm ischemia and reperfusion). The format is in vivo. The method, then: In a modification of the model of Ohno et al. (1993) male Fischer (F344) rats (200–250 g) undergo clamping of the left pulmonary artery, pulmonary vein and main bronchus for 36 minutes of warm ischemia. After reperfusion of the left lung, the right lung is occluded to assess the function of the left lung for 90 minutes. The peptide is given at 3 minutes after reperfusion by either instillation or intravenous injection via the subclavian vein.
• 1. Anaesthesia of the rat in a glass chamber, 4% Halothane and Oxygen 4/min. • 2. Intubation of the rat with a 1.8 mm catheter, • 3. Shaving the fur on the abdomen and left side of the animal. • 4. Ventilation via the tracheal tube 100/min, 2.5 ml 20% oxygen, Harvard Rodent Ventilator (Harvard Apparatus, South Natick, Mass.), PEEP 5 mm H2O. • 5. A left thoracotomy is carried out in the in 4th intercostal space. • 6. Dissection of the left lung hilar region. • 7. Microvascular clips are placed around the left pulmonary artery (PA), Pulmonary vein (PV) and left main bronchus (B) to induce warm ischemia of the left lung. Small circulation is still ongoing through the right lung. This is the start of the Warm Ischemia Time (WIT). • 8. Anaesthaesia is maintained with 2% Halothane, 40% Oxygen. • 9. A provisory Z suture is made to temporary close the thoracotomy and a gaze sponge is put on the animal to decrease warmth loss. • 10. Near the end of the WIT, a thoracophrenolaparatomy in the midline with thorough electrocaterisation. (two peans on the sternum). • 11. Putting 2-0 Softsilk on the trachea around the intubation tube. • 12. Dissection of the right hilar elements. • 13. Taking away microvascular clips from the left hilar elements. End of WIT of the left lung after 36 minutes. • 14. Putting microvascular clips on right PA and B. Small circulation only through left lung. Start developing of left oedema time (LLOT). • 15. After 3 minutes of LLOT: instillation of the drug in 0.5 ml of 0.9% saline solution (Baxter) or injection of the drug in 0.25–0.3 ml of 0.9% saline through the subclavian vein. • 16. After 6, 30, 60 and 90 minutes of LLOT, puncture of the Aortic Arch (AA) with needle for blood gas analysis in Radiometer ABL 700 Serie, (Denmark). • 17. After each puncture the AA puncture hole is pressed with a cotton swab. • 18. Blood gas analysis is taken every time from AA (the heart rate should be over 60). • 19. After the last blood gas analysis (90 minutes), both lungs are flushed via the PA with 20 ml of 0.9% saline at a pressure of 20 cm H2O. […] The heart-lung block is excised for storage under formaline or in the freezer awaiting immunohistopathological analysis. Alternatively, the lung can be excised without flushing to assess wet to dry ratio's. Results (FIG. 7)

Turning to “CGPKDTPEGAELKPWYC (disulfide 1-17; listed as Mus musculus) [cyclic mu Ltip]”, in the data set on isolated rat lungs [1], the “leukocyte infiltration (lung histology)” value was “did not show this increased leukocyte infiltration”. Further, in the data set with isolated rat lungs [2] (2 hours reperfusion after 2 ml saline, TNF 5 μg, peptides 1 mg), the “lung weight change over time after alveolar flooding” value is “progressively decreased in weight”. The “lung mechanics (peak AWP, Cdyn, Raw) after alveolar flooding” value in the data set on isolated rat lungs [2] (2 hours reperfusion, TNF 5 μg, peptides 1 mg) was “progressive improvement in lung mechanics”. The “fraction of intratracheal instilled saline lost” value in the data set on isolated rat lungs [2] (at 2 hours, 1 mg) was “approximately half”. In the data set on isolated rat lungs [2] (end of 2-hour reperfusion, 1 mg), the “inflation volume at lower inflection point” value was found to be 3.4 ± 0.9 mL. In addition, the “lower inflection point of inspiratory quasi-static PV curve” value in the data set on isolated rat lungs [2] (end of 2-hour reperfusion, TNF 5 μg, peptide 1 mg) is 17.2±1.6 cmH2O.
Consider CGQRETPEGAEAKPWYC [cyclic hum Ltip], for which, in data set [3] (after intratracheal instillation, summary in words), the “clearing alveolar fluid content ex vivo” value was “capable of clearing alveolar fluid content”. For the same sequence, in data set [3] (measured 80 minutes after instillation, summary in words), the “activity in fluid clearance” value was “equally active”. Also, in data set [3] (synthetic peptide 1000 μg/lung), the “Weight loss of ex vivo instilled rat lung over 80 min” value was 658 mg and 585 mg and 663 mg and 648 mg and 575 mg and 931 mg and 900 mg and 918 mg; the “Weight loss of ex vivo instilled rat lung over 100 min” value was 1009 mg and 744 mg and 685 mg and 663 mg and 758 mg and 694 mg and 1004 mg and 1000 mg. Also, in data set [4], the pO2 is 395+/−95 mmHg. Besides, the pCO2 levels result in data set [5] (500 μg/kg to 5 μg/kg, data not shown) is given as “lower pCO2 levels”. The “pO2 blood gas levels” value in data set [5] (6 to 90 minutes of LLOT, cyclic hum Ltip 500 μg/kg to 5 μg/kg, hum mut Tip 500 μg/kg) is “significantly much better pO2 levels”. The “gain in pO2 blood gas” value in data set [5] (iv application) is listed as “significantly increased gain in pO2 blood gas”.
